Legend:
[1] = Cytotoxicity against human PANC1 cells at 30 uM cultured in nutrient-deprived medium; type: functional; conditions: PANC-1
[2] = Cytotoxicity against human PANC1 cells at 30 uM cultured in dulbecco's modified eagle's medium; type: functional; conditions: PANC-1
[3] = Antitumor activity against human MIAPaCa2 cells xenografted in BALB/cAJcl-nu/nu mouse assessed as tumor volume at 8.02 mg/kg, ip measured every fourth day (reference value: 1917.6 +/- 280.3 mm3); type: functional, MIA PaCa-2
[4] = Cytotoxicity against human PANC1 cells cultured in nutrient-deprived medium; type: functional, PANC-1
[5] = Antitumor activity against human MIAPaCa2 cells xenografted in BALB/cAJcl-nu/nu mouse assessed as reduction in tumor volume at 8.02 mg/kg, ip measured every fourth day relative to control; type: functional, MIA PaCa-2
Mus musculus [6] = experiment: Toxicity in BALB/cAJcl-nu/nu mouse xenografted with human MIAPaCa2 cells assessed as body weight loss at 8.02 mg/kg, ip measured every fifth day; type: organism-based, MIA PaCa-2; conditions: in vivo
[7] = Cytotoxicity against human PANC1 cells cultured in dulbecco's modified eagle's medium; type: functional, PANC-1
Mus musculus [8] = experiment: Toxicity in BALB/cAJcl-nu/nu mouse xenografted with human MIAPaCa2 cells assessed as body weight loss at 7.5 mg/kg, ip measured every fifth day; type: organism-based, MIA PaCa-2; conditions: in vivo
[9] = Antitumor activity against human MIAPaCa2 cells xenografted in BALB/cAJcl-nu/nu mouse assessed as reduction in tumor volume at 7.5 mg/kg, ip measured every fourth day relative to control; type: functional, MIA PaCa-2
[10] = Antitumor activity against human MIAPaCa2 cells xenografted in BALB/cAJcl-nu/nu mouse assessed as tumor volume at 7.5 mg/kg, ip measured every fourth day (reference value: 1917.6 +/- 280.3 mm3); type: functional, MIA PaCa-2

SMILES	inhibition at 30 µM [2]	PC50 [4]	other results
S=C1c2c(c3ccccc3n2Cc2ccccc2)CCN1Cc1ccccc1	< 50%	–	inhibition at 30 µM [1]: < 50%
Oc1cccc(Cn2c3c(c4ccccc42)CCN(Cc2ccccc2)C3=S)c1	< 50%	1.96 µM	Activity [3]: 1203.9 mm3; fold change (FC) [5]: 1.6; Activity (Mus musculus [6]): Non-toxic
O=C1c2c(c3ccccc3n2Cc2cccc(O)c2)CCN1Cc1ccccc1	–	44.8 µM	–
Fc1ccc(Cn2c3c(c4ccccc42)CCN(Cc2ccccc2)C3=S)cc1	–	–	inhibition at 30 µM [1]: < 50%; PC50 [7]: 152.6 µM
Oc1cc(O)cc(Cn2c3c(c4ccccc42)CCN(Cc2ccccc2)C3=S)c1	< 50%	4.81 µM	–
Oc1ccc(Cn2c3c(c4ccccc42)CCN(Cc2ccccc2)C3=S)cc1	–	1.68 µM	PC50 [7]: 20 µM
Oc1ccc(Cn2c3c(c4ccccc42)CCN(Cc2ccccc2)C3=S)cc1O	< 50%	4.56 µM	–
S=C1c2c(c3ccccc3n2Cc2ccc(Cl)cc2)CCN1Cc1ccccc1	< 50%	–	inhibition at 30 µM [1]: < 50%
COc1ccc(Cn2c3c(c4ccccc42)CCN(Cc2ccccc2)C3=S)cc1O	< 50%	7.07 µM	–
COc1ccc(Cn2c3c(c4ccccc42)CCN(Cc2ccccc2)C3=S)cc1	< 50%	–	inhibition at 30 µM [1]: < 50%
Oc1ccccc1Cn1c2c(c3ccccc31)CCN(Cc1ccccc1)C2=S	< 50%	2.23 µM	–
Oc1cccc(Cn2ccc3ccccc32)c1	–	173.7 µM	–
COc1cc(O)cc(Cn2c3c(c4ccccc42)CCN(Cc2ccccc2)C3=S)c1	< 50%	4.2 µM	–
O=C1OCCc2c1n(Cc1cccc(O)c1)c1ccccc21	–	131.7 µM	–
COc1cc(Cn2c3c(c4ccccc42)CCN(Cc2ccccc2)C3=S)ccc1O	–	2.54 µM	PC50 [7]: 8.15 µM
COc1cc(C[C@H]2C(=O)OC[C@@H]2Cc2ccc(OC)c(OC)c2)ccc1O [ARCTIGENIN]	< 50%	1.27 µM	Activity (Mus musculus [8]): Non-toxic; fold change (FC) [9]: 2.2; Activity [10]: 856.8 mm3
